Test results reported in patent US5607969A, “L-DOPA ethyl ester to treat Parkinson's disease” (priority 1995, dated 1997).
“Also recorded” adds a separate entry of the source. Where a name gives a salt, the structure may show the parent alone. Read-outs that look alike come from different tables or passages of the source.

Assays:
[1] = Stability of L-DOPA ethyl ester prepared according to Examples 1 and 2 (Table 2); type: physicochemical; design: key to COLOR: A: White with gray particles; B: Cream; C: WhiteYellow; D: Yellow; E: Dark Yellow; F: Gray; IMPURITIES: unit not given beside the values
Excerpt: | STABILITY OF L-DOPA ESTER PREPARED

[2] = Hygroscopicity, stability and crystallization of L-DOPA ethyl ester hydrochloride / free base made by conventional methods; type: physicochemical
Excerpt: GB Patent No. 1,364,505 and corresponding U.S. Pat. No. 3,803,120, assigned to Hoffman-La Roche, describe the synthesis of L-DOPA ethyl ester hydrochloride salt and free base. This compound synthesized is used as an intermediate in the synthesis of other compounds and is not characterized in the patent specification. […] This material cannot be used for pharmaceutical compositions.

[3] = literature, hydrochloride, cited from earlier work
[4] = system: Parkinson's Disease patients having response fluctuations; experiment: Clinical trial: administration of L-DOPA ethyl ester by injection (UPDRS on/off phases); type: in vivo, human
Procedure: A clinical trial was undertaken to assess the clinical efficacy of L-DOPA ethyl ester administered by sub-cutaneous injection.
The solution for injection L-DOPA ethyl ester 100mg, HCl to pH 4.0 and purified water as the vehicle.
Ten Parkinson's Disease patients having response fluctuations were hospitalized. These patients are typified in have "on" phases fluctuating with incapacitating "off" phases. Patients were administered s.c. or i.m. L-DOPA ethyl ester at escalating doses of 150-300mg in 2ml vehicle, twice daily, one hour after an oral capsule containing 25mg of carbidopa. "Off" and "on" UPDRS (Unified Parkinson's Disease Rating Scale) profiles, time to "on" phase and duration of "on" phase were measured. Blood samples were taken every 10 minutes post-L-DOPA ethyl ester administration for measurement of levodopa levels.

[5] = Bio-availability of L-DOPA ethyl ester in rats (subcutaneous), plasma L-DOPA profile; type: in vivo; details: s.c.
Procedure: Three subgroups of rats, each comprising four males and four females, were injected subcutaneously with 100 mg./kg. L-DOPA equivalents as L-DOPA ethyl ester. The L-DOPA ethyl ester was prepared as described in Example 1 and formulated as described in Example 4. After injection, blood samples were taken from the tail at the times shown below and analyzed for L-DOPA as described in T. Wikberg, J. of Pharmaceutical & Biomedical Analysis 9: 167-176 (1991). […] The L-DOPA plasma profile following injection is shown below: […]

[6] = Oral administration of L-DOPA ethyl ester to volunteers, plasma L-DOPA levels; type: in vivo, human; details: humans
Procedure: Human volunteers orally received 100 mg equivalents of L-DOPA as L-DOPA ethyl ester prepared according to Example 1 and formulated as described in Example 5. Plasma levels of L-DOPA following administration of representative patients are listed below in Table 5.

[7] = system: fluctuating Parkinsonian patients; experiment: Second oral clinical trial: safety, tolerability and preliminary efficacy of L-DOPA ethyl ester, sub-chronic; type: in vivo, human
Procedure: A clinical trial was carried out to determine the safety, tolerability, and preliminary efficacy of L-DOPA ethyl ester administered sub-chronically via the oral route in eight fluctuating Parkinsonian patients.
In the second clinical trial, all patients filled out daily diary cards for at least 10 days prior to study entry to ensure their reliability. Upon study entry they were instructed to continue filling out daily diary cards for the 10-day period during which they were taking L-DOPA ethyl ester.
Three out of the patients' normal daily doses with levodopa/carbidopa or levodopa/benserazide were switched to L-DOPA ethyl ester, each day for ten days. At the beginning and end of this ten-day period, a physical exam was performed and blood chemistry analyzed.

[8] = system: fluctuating Parkinsonian patients; experiment: First oral clinical trial in fluctuating Parkinsonian patients; type: in vivo, human; details: four occasions over two days, five patients
Procedure: This was the second in a series of oral clinical trials carried out with L-DOPA ethyl ester. The first clinical trial was carried out in five fluctuating Parkinsonian patients in the hospital setting where L-DOPA ethyl ester was administered on four occasions over a two day period.

[9] = synthesized by the methods of GB 1,364,505 / U.S. 3,803,120
[10] = s.c./i.m. injection, dose dependence
[11] = 25° C. -N2, 1 m, listed as Example 1
[12] = 25° C. -N2, 2 m, listed as Example 1
[13] = 25° C. -N2, 4 m, listed as Example 1
[14] = 40° C., 1 m, listed as Example 1
[15] = 40° C., 2 m, listed as Example 1
[16] = 40° C., 4 m, listed as Example 1

## CCOC(=O)[C@@H](N)Cc1ccc(O)c(O)c1 [Example 2a, L-DOPA ethyl ester]
[1]; 25° C. -N2, 1 m
  COLOR: D
  IMPURITIES: 16.9
[1]; 25° C. -N2, 1 m, 43200 min
  ASSAY: 83.1%
[1]; 25° C. -N2, 2 m
  COLOR: E
  IMPURITIES: 17.2
[1]; 25° C. -N2, 2 m, 86400 min
  ASSAY: 84.4%
[1]; 40° C., 1 m
  COLOR: E
  IMPURITIES: 20.9
[1]; 40° C., 1 m, 43200 min
  ASSAY: 82.6%
[1]; 40° C., 2 m
  COLOR: E
  IMPURITIES: 19.3
[1]; 40° C., 2 m, 86400 min
  ASSAY: 80.0%
[1]; t = 0
  ASSAY: 87%

## CCOC(=O)[C@@H](N)Cc1ccc(O)c(O)c1 [Example 2b, L-DOPA ethyl ester]
[1]; 25° C. -N2, 1 m
  COLOR: D/E
  IMPURITIES: 13.0
[1]; 25° C. -N2, 1 m, 43200 min
  ASSAY: 88.0%
[1]; 25° C. -N2, 2 m
  COLOR: D/E
  IMPURITIES: 13.9
[1]; 25° C. -N2, 2 m, 86400 min
  ASSAY: 86.8%
[1]; 25° C. -N2, 4 m
  COLOR: D/E
  IMPURITIES: 9.7
[1]; 25° C. -N2, 4 m, 172800 min
  ASSAY: 88.1%
[1]; 40° C., 1 m
  COLOR: D/E
  IMPURITIES: 14.0
[1]; 40° C., 1 m, 43200 min
  ASSAY: 85.1%
[1]; 40° C., 2 m
  COLOR: D/E
  IMPURITIES: 18.2
[1]; 40° C., 2 m, 86400 min
  ASSAY: 83.3%
[1]; 40° C., 4 m
  COLOR: F
[1]; 40° C., 4 m, 172800 min
  ASSAY: 79.2%
[1]; t = 0
  ASSAY: 87.9%

## CCOC(=O)[C@@H](N)Cc1ccc(O)c(O)c1 [Example 2c, L-DOPA ethyl ester]
[1]; 25° C. -N2, 1 m
  COLOR: D
  IMPURITIES: 5.6
[1]; 25° C. -N2, 1 m, 43200 min
  ASSAY: 94.0%
[1]; 25° C. -N2, 2 m
  COLOR: D/E
  IMPURITIES: 5.1
[1]; 25° C. -N2, 2 m, 86400 min
  ASSAY: 93.6%
[1]; 25° C. -N2, 4 m
  COLOR: F
  IMPURITIES: 5.6
[1]; 25° C. -N2, 4 m, 172800 min
  ASSAY: 94.1%
[1]; 40° C., 1 m
  COLOR: D
  IMPURITIES: 5.7
[1]; 40° C., 1 m, 43200 min
  ASSAY: 91.7%
[1]; 40° C., 2 m
  COLOR: D/E
  IMPURITIES: 4.8
[1]; 40° C., 2 m, 86400 min
  ASSAY: 93%
[1]; 40° C., 4 m
  COLOR: F
  IMPURITIES: 6.4
[1]; 40° C., 4 m, 172800 min
  ASSAY: 93%
[1]; t = 0
  ASSAY: 95.8%

## CCOC(=O)[C@@H](N)Cc1ccc(O)c(O)c1 [L-DOPA ethyl ester hydrochloride salt, L-DOPA ethyl ester hydrochloride]
[2]; applicant's own finding, hydrochloride
  hygroscopicity: hygroscopic nature
[2]; [9]
  crystallization: difficult to crystallize
  stability: not stable
[3]
  crystallization: difficult to crystallize
  hygroscopicity: hygroscopic
[3]; listed as ethyl ester
  crystallization: could not be crystallized as its hydrochloride salt
  hygroscopicity: hygroscopic potential

## CCOC(=O)[C@@H](N)Cc1ccc(O)c(O)c1 [L-DOPA ethyl ester]
[4]; 150 mg i.m., 2 injections, range (30-45)
  MEAN TIME TO "ON" (RANGE): 37.5 min
[4]; 150 mg i.m., 2 injections, range (60-70)
  MEAN DURATION OF "ON" (RANGE): 65 min
[4]; 150 mg s.c., 6 injections, range (10-55)
  MEAN DURATION OF "ON" (RANGE): 31.4 min
[4]; 150 mg s.c., 6 injections, range (25-90)
  MEAN TIME TO "ON" (RANGE): 54 min
[4]; 200 mg i.m., 5 injections, range (20-40)
  MEAN TIME TO "ON" (RANGE): 29.2 min
[4]; 200 mg i.m., 5 injections, range (28-175)
  MEAN DURATION OF "ON" (RANGE): 104.5 min
[4]; 200 mg s.c., 19 injections, range (10-120)
  MEAN TIME TO "ON" (RANGE): 38.6 min
[4]; 200 mg s.c., 19 injections, range (10-235)
  MEAN DURATION OF "ON" (RANGE): 126.9 min
[4]; 250 mg i.m., 5 injections, range (10-35)
  MEAN TIME TO "ON" (RANGE): 27.5 min
[4]; 250 mg i.m., 5 injections, range (75-170)
  MEAN DURATION OF "ON" (RANGE): 133.3 min
[4]; 250 mg s.c., 8 injections, range (20-40)
  MEAN TIME TO "ON" (RANGE): 27.1 min
[4]; 250 mg s.c., 8 injections, range (60-210)
  MEAN DURATION OF "ON" (RANGE): 155 min
[4]; 300 mg i.m., 7 injections, range (5-35)
  MEAN TIME TO "ON" (RANGE): 18.3 min
[4]; 300 mg i.m., 7 injections, range (135-265)
  MEAN DURATION OF "ON" (RANGE): 196.7 min
[4]; 300 mg s.c., 6 injections, range (5-37)
  MEAN TIME TO "ON" (RANGE): 22.8 min
[4]; 300 mg s.c., 6 injections, range (80-315)
  MEAN DURATION OF "ON" (RANGE): 193 min
[4]; s.c. LDEE injection
  patients turned to an "on" phase: All patients were turned to an "on" phase
[4]; s.c./i.m. injection
  local or general side effects: No local or general side effects were observed
  plasma levodopa elevations: rapid and sustained plasma levodopa elevations
[4]; [10]
  duration of "on" phases: increased in a dose-dependant manner
  latency of onset of "on" phases: decreased
[5]
  conversion to L-DOPA: fully converted to L-DOPA
[5]; 100 mg./kg. L-DOPA equivalents
  L-DOPA ethyl ester detected in plasma samples: No L-DOPA ethyl ester was detected in any of the plasma samples
[5]; compared with L-DOPA
  kinetic profile: kinetic profile similar to L-DOPA
[6]
  conversion of L-DOPA ethyl ester to L-DOPA: rapid conversion of L-DOPA ethyl ester to L-DOPA in humans
[7]; following ten-day treatment
  serum chemistry: no abnormalities or changes for any patient
[7]; ten days
  duration of the anti-Parkinsonian effect: marked beneficial effect
  latency to initiation of drug action: marked beneficial effect
  variability of the response of the patient to the drug's effect: significant decrease
[7]; ten days, three times per day
  safety and tolerability: well tolerated by all individuals in the trial; also recorded: safe, well tolerated
[7]; ten days, three times per day, potential advantage
  unpredictability of drug response: reducing the unpredictability of drug response
[7]; ten-day treatment, eight patients
  patient complaints / adverse reaction: no patient complaints nor any reported adverse reaction
[1]; [11]
  COLOR: A
  IMPURITIES: 1.2
[1]; [12]
  COLOR: B
  IMPURITIES: 0.7
[1]; [13]
  COLOR: C
  IMPURITIES: 0.6
[1]; [14]
  COLOR: A
  IMPURITIES: 2.4
[1]; [15]
  COLOR: B
  IMPURITIES: 0.7
[1]; 40° C., 4 m, 172800 min, listed as Example 1, 172800 min
  ASSAY: 99.7%
[1]; [16]
  COLOR: C
  IMPURITIES: 0.5
[1]; storage, 25° C. -N2, 1 m
  remaining at 720 h: 98%
[1]; storage, 25° C. -N2, 2 m
  remaining at 1440 h: 99.4%
[1]; storage, 25° C. -N2, 4 m
  remaining at 2880 h: 99.5%
[1]; storage, 40° C., 1 m
  remaining at 720 h: 98.9%
[1]; storage, 40° C., 2 m
  remaining at 1440 h: 99.6%
[8]
  adverse reactions: No adverse reactions were recorded in any of the patients
